According to patent EP0770601A1, “PROPENONE DERIVATIVES” (Kyowa Hakko Kogyo Co., Ltd., priority 1995, dated 1996):
Values belong to the compound of their own block, whether it stands above or below them.

What was measured:
HeLa S3 cells = assay: HeLa S3 cell growth inhibition test (neutral red staining); assay type: cell-based; conditions: Homo sapiens, 72 hours culture with test compound, neutral red absorbance at 550 nm
Procedure: Test Example 1: HeLa S3 Cell Growth Inhibition Test
Each 0.1 ml of HeLa S3 cells which had been prepared to 3 x 10^4 cells/ml using a medium consisted of MEM medium, 10% fetal bovine serum and 2 mM glutamine was distributed in each well of 96 well-microtiter plate. HeLa S3 was cultured at 37°C in a CO2 incubator for one night, each 0.05 ml of test compounds which had been appropriately diluted with the culture solution was added thereto and the mixture was cultured at 37°C for 72 hours in a CO2 incubator. Supernatant was removed, each 0.1 ml of the culture solution containing 0.02% neutral red was added to the residue, the mixture was incubated at 37°C for one hour in a CO2 incubator and the cells were stained. Supernatant was removed and the residue was washed once with physiological saline. Then, the pigment was extracted with 0.001 N hydrochloric acid/30% ethanol and the absorbance at 550 nm was measured by a microplatereader. A concentration of the test compound (IC50) at which the growth of cell is inhibited by 50% was calculated by comparing the absorbance of non-treated cells and that of cells treated with a predetermined concentration of the test compound.

P388 mouse leukemia = assay: Effect upon P388 ascites tumor (increased life span); assay type: in vivo; conditions: consecutive 5 days from 24 hours after implantation of the tumor, male CDF1 mice
Procedure: Test Example 2: Effect upon P388 Ascites Tumor […] The resultant suspension was administered once 24 hours after implantation of the tumor, or repeatedly for consecutive 5 days from 24 hours after implantation of the tumor. The average survival day (T) in a group was calculated from the survival days of the respective mice in the group administered with the test compound at each dose. On the other hand, the average survival day (C) of a group which was not administered was measured, and the increased life span [ILS (%)] was calculated according to the following equation: [(T - C)/C] x 100 (%) [formula]

Compound: CCOc1c(OC)cc(C(=O)C(C)=Cc2c[nH]c3cc(Cl)ccc23)cc1OC [Compound 18, 3-(6-Chloroindol-3-yl)-1-(4-ethoxy-3,5-dimethoxyphenyl)-2-methyl-2-propen-1-one]
IC50 (HeLa S3 cells): 6.3 nM

Compound: COc1cc(C(=O)C(C)=Cc2c[nH]c3ccccc23)cc(Br)c1OC [Compound 10, 1-(3-Bromo-4-dimethoxyphenyl)-3-(indol-3-yl)-2-methyl-2-propen-1-one]
IC50 (HeLa S3 cells): 6.6 nM

Compound: CCOc1cc(C(=O)C(C)=Cc2c[nH]c3ccccc23)cc(OCC)c1OCC [Compound 4, 3-(Indol-3-yl)-2-methyl-1-(3,4,5-triethoxyphenyl)-2-propen-1-one]
IC50 (HeLa S3 cells): 22 nM

Compound: COc1cc(C(=O)C(C)=Cc2c[nH]c3cc(C)ccc23)cc(OC)c1OCC(C)C [Compound 15, 1-(4-Isobutyloxy-3,5-dimethoxyphenyl)-2-methyl-3-(6-methylindol-3-yl)-2-methyl-2-propen-1-one]
IC50 (HeLa S3 cells): 18 nM

Compound: CCOc1c(OC)cc(C(=O)C(C)=Cc2c[nH]c3cc(CC)ccc23)cc1OC [Compound 16, 1-(4-Ethoxy-3,5-dimethoxyphenyl)-3-(6-ethylindol-3-yl)-2-methyl-2-propen-1-one]
IC50 (HeLa S3 cells): 6.2 nM

Compound: COc1cc(C(=O)C(C)=Cc2c[nH]c3ccccc23)cc(OC)c1OCC(C)C [Compound 6, 3-(Indol-3-yl)-1-(4-isobutyloxy-3,5-dimethoxyphenyl)-2-methyl-2-propen-1-one]
IC50 (HeLa S3 cells): 9.4 nM | ILS (%) [Dose (mg/kg)] five consec. admin. (P388 mouse leukemia; dose 3.1 mg/kg): 43 ( 3.1) %

Compound: CCc1c(OC)cc(C(=O)C(C)=Cc2c[nH]c3ccccc23)cc1OC [Compound 7, 1-(4-Ethyl-3-dimethoxyphenyl)-3-(indol-3-yl)-2-methyl-2-propen-1-one]
IC50 (HeLa S3 cells): 64 nM | ILS (%) [Dose (mg/kg)] five consec. admin. (P388 mouse leukemia; dose 25 mg/kg): 40 ( 25) %

Compound: CCCCOc1c(OC)cc(C(=O)C(C)=Cc2c[nH]c3cc(C)ccc23)cc1OC [Compound 20, 1-(4-Buthoxy-3,5-dimethoxyphenyl)-2-methyl-3-(6-methylindol-3-yl)-2-propen-1-one]
IC50 (HeLa S3 cells): 6.1 nM

Compound: CCOc1c(OC)cc(C(=O)C(C)=Cc2c[nH]c3cc(C)ccc23)cc1OC [Compound 11, 1-(4-Ethoxy-3,5-dimethoxyphenyl)-2-methyl-3-(6-methylindol-3-yl)-2-propen-1-one]
IC50 (HeLa S3 cells): 6.7 nM

Compound: COc1ccc(C(=O)C(C)=Cc2c[nH]c3ccccc23)c(OC)c1OC [Compound 24, 3-(Indol-3-yl)-2-methyl-1-(2,3,4-trimethoxyphenyl)-2-propen-1-one]
IC50 (HeLa S3 cells): 22 nM

The remaining compounds from weak to strong by IC50 (HeLa S3 cells), led by results:

IC50 (HeLa S3 cells): 6.1 nM
Compound: COc1cc(C(=O)C(C)=Cc2c[nH]c3ccccc23)cc2c1OCO2 [Compound 8, 3-(Indol-3-yl)-1-(3-methoxy-4,5-methylenedioxyphenyl)-2-methyl-2-propen-1-one]
ILS (%) [Dose (mg/kg)] five consec. admin. (P388 mouse leukemia; dose 6.3 mg/kg): 50 ( 6.3) %

IC50 (HeLa S3 cells): 5.2 nM
Compound: CCCOc1c(OC)cc(C(=O)C(C)=Cc2c[nH]c3cc(C)ccc23)cc1OC [Compound 19, 1-(3,5-Dimethoxy-4-propoxyphenyl)-2-methyl-3-(6-methylindol-3-yl)-2-propen-1-one]

IC50 (HeLa S3 cells): 3.2 nM
Compound: CCOc1cc(C(=O)C(C)=Cc2c[nH]c3ccccc23)cc(OC)c1OC [Compound 9, 1-(5-Ethoxy-3,4-dimethoxyphenyl)-3-(indol-3-yl)-2-methyl-2-propen-1-one]

IC50 (HeLa S3 cells): 2.5 nM
Compound: CCOc1c(OC)cc(C(=O)C(C)=Cc2c[nH]c3ccccc23)cc1OC [Compound 5, 1-(4-Ethoxy-3,5-dimethoxyphenyl)-3-(indol-3-yl)-2-methyl-2-propen-1-one]
ILS (%) [Dose (mg/kg)] five consec. admin. (P388 mouse leukemia; dose 3.1 mg/kg): 41 ( 3.1) %

IC50 (HeLa S3 cells): 2.3 nM
Compound: COc1cc(C(=O)C(C)=Cc2c[nH]c3cc(C)ccc23)cc2c1OCO2 [Compound 12, 1-(3-Methoxy-4,5-methylenedioxyphenyl)-2-methyl-3-(6-methylindol-3-yl)-2-propen-1-one]
